According to ChEMBL document CHEMBL1201862, “PubChem BioAssay data set” (2004):
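Results reflect a 48-hour exposure of cells in 96-well plates to compound at five concentrations. GI50 is the concentration that inhibits growth by half.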 The source made the active and inactive calls. Cut-off read from the data, not from the text of the source: active = GI50 up to about 1.1 µM and inactive = higher.

What was measured:
Experiment in all cases: inhibition of tumour cell growth, NCI panel, 48 h
[1] = tested on: HCT-116
[2] = tested on: A549
[3] = tested on: UACC-62
[4] = tested on: HT-29
[5] = tested on: Hs-578T
[6] = tested on: EKVX
[7] = tested on: NCI/ADR-RES
[8] = tested on: SNB-75
[9] = tested on: OVCAR-8
[10] = tested on: SF-539
[11] = tested on: U-251
[12] = tested on: LOX IMVI
[13] = tested on: SN12C
[14] = tested on: K562
[15] = tested on: SF-268
[16] = tested on: UACC-257
[17] = tested on: SF-295
[18] = tested on: SK-MEL-2
[19] = tested on: CAKI-1
[20] = tested on: SR

SMILES	GI50 [1]	GI50 [2]	GI50 [3]	GI50 [4]	GI50 [5]	GI50 [6]	GI50 [7]	GI50 [8]	GI50 [9]	GI50 [10]	GI50 [11]	GI50 [12]	GI50 [13]	GI50 [14]	GI50 [15]	GI50 [16]	GI50 [17]	GI50 [18]	GI50 [19]	GI50 [20]
NC1=CN(Cc2ccccc2)C2=N/C(=C\c3ccccc3O)C(=O)N12	> 100 µM (inactive)	> 100 µM (inactive)	> 100 µM (inactive)	> 100 µM (inactive)	> 100 µM (inactive)	52.1 µM (inactive)	> 100 µM (inactive)	> 100 µM (inactive)	> 100 µM (inactive)	> 100 µM (inactive)	71.6 µM (inactive)	> 100 µM (inactive)	> 100 µM (inactive)	73.3 µM (inactive)	> 100 µM (inactive)	> 100 µM (inactive)	> 100 µM (inactive)	> 100 µM (inactive)	> 100 µM (inactive)	
N#C[C@H]1C(=O)C(c2nc3ccccc3[nH]2)S[C@H]1c1ccccc1 (stereo not given in full)	27.4 µM (inactive)	45.4 µM (inactive)	15.3 µM (inactive)	32.2 µM (inactive)	45.2 µM (inactive)	28.9 µM (inactive)	30.9 µM (inactive)		43.2 µM (inactive)		22.6 µM (inactive)	42 µM (inactive)	20 µM (inactive)	35.2 µM (inactive)		63.2 µM (inactive)	25.2 µM (inactive)		38.6 µM (inactive)	28.8 µM (inactive)
Oc1cccc(-c2cn3cc(C(F)(F)F)ccc3n2)c1	39.9 µM (inactive)	28.6 µM (inactive)	30.7 µM (inactive)	24.1 µM (inactive)	74.6 µM (inactive)	17.5 µM (inactive)	25.9 µM (inactive)		27.8 µM (inactive)		50.6 µM (inactive)	32.6 µM (inactive)	47.9 µM (inactive)	30.5 µM (inactive)	38.8 µM (inactive)	22.9 µM (inactive)	24.5 µM (inactive)	39.5 µM (inactive)	47.9 µM (inactive)	31.6 µM (inactive)
Cc1cccc(C)c1Nc1nc(C)c(C(=O)CC(=O)C(=O)Nc2c(C(C)C)cccc2C(C)C)s1	> 100 µM (inactive)	> 100 µM (inactive)	> 100 µM (inactive)	> 100 µM (inactive)	> 100 µM (inactive)	> 100 µM (inactive)	73.8 µM (inactive)		> 100 µM (inactive)	> 100 µM (inactive)	> 100 µM (inactive)	> 100 µM (inactive)	> 100 µM (inactive)	> 100 µM (inactive)	> 100 µM (inactive)	> 100 µM (inactive)	58.5 µM (inactive)	> 100 µM (inactive)	> 100 µM (inactive)	69.3 µM (inactive)
COc1cc(OC)c(-c2oc3ccccc3c(=O)c2O)c(OC)c1	3.76 µM (inactive)	4.9 µM (inactive)	2.69 µM (inactive)	3.08 µM (inactive)	2.39 µM (inactive)	39.4 µM (inactive)	1.77 µM (inactive)	6.01 µM (inactive)	10.4 µM (inactive)	8.73 µM (inactive)	3.84 µM (inactive)	5.98 µM (inactive)	> 100 µM (inactive)	2.7 µM (inactive)	> 41.3 µM (inactive)	> 91.6 µM (inactive)	2.44 µM (inactive)		5.74 µM (inactive)	3.69 µM (inactive)
O=c1oc2c/c(=C\c3ccccn3)c(=O)c3cccc1c3-2	35.2 µM (inactive)		> 100 µM (inactive)	> 100 µM (inactive)	> 100 µM (inactive)	> 100 µM (inactive)	52.7 µM (inactive)		16.5 µM (inactive)	19.7 µM (inactive)		29 µM (inactive)	95.5 µM (inactive)	> 100 µM (inactive)	30.8 µM (inactive)	> 100 µM (inactive)	> 100 µM (inactive)		> 100 µM (inactive)	54.8 µM (inactive)
N#CC(c1ccccc1)N(CCOCCOCCN(C(=O)c1cccc2ccccc12)C(C#N)c1ccccc1)C(=O)c1cccc2ccccc12 (stereo not given)	9.55 µM (inactive)	17.5 µM (inactive)	> 100 µM (inactive)	> 100 µM (inactive)	> 100 µM (inactive)	> 100 µM (inactive)	> 100 µM (inactive)	> 100 µM (inactive)	> 100 µM (inactive)	> 100 µM (inactive)	> 100 µM (inactive)	> 100 µM (inactive)	> 100 µM (inactive)	42.4 µM (inactive)	> 100 µM (inactive)	> 100 µM (inactive)	> 100 µM (inactive)	> 100 µM (inactive)	> 100 µM (inactive)	
CC[C@@]1(OC(=O)CN(C)C)C(=O)OCc2c1cc1n(c2=O)Cc2cc3ccccc3nc2-1	0.0481 µM (active)	0.0365 µM (active)	0.00569 µM (active)	0.129 µM (active)	4.24 µM (inactive)	0.863 µM (active)	0.0421 µM (active)	0.0647 µM (active)	0.0596 µM (active)	0.0111 µM (active)	0.0118 µM (active)	0.0198 µM (active)	< 0.0191 µM (active)	0.061 µM (active)	< 0.0131 µM (active)	0.11 µM (active)	0.01 µM (active)	0.701 µM (active)	0.0211 µM (active)	
C=C1CC2[C@H](C)C(=O)CCC2(C)C2=C1C1CCC(C(C)CCC(=C)C(C)C(=O)O)C1(C)CC2=O (stereo not given in full)	32.5 µM (inactive)	66.7 µM (inactive)	51.8 µM (inactive)	62.1 µM (inactive)	> 100 µM (inactive)	71.8 µM (inactive)	84.1 µM (inactive)	95.5 µM (inactive)	75.7 µM (inactive)	97.3 µM (inactive)	55.1 µM (inactive)	17.9 µM (inactive)	> 100 µM (inactive)	9.75 µM (inactive)	> 100 µM (inactive)	29.2 µM (inactive)	62.5 µM (inactive)	> 100 µM (inactive)	> 100 µM (inactive)	
COc1cc(OC)c(OC)cc1/C=C/c1ccc2ccccc2n1	3.72 µM (inactive)	> 10 µM (inactive)	6.44 µM (inactive)	4.35 µM (inactive)	3.44 µM (inactive)		7.6 µM (inactive)	9.71 µM (inactive)	> 10 µM (inactive)	3.53 µM (inactive)	> 10 µM (inactive)	> 10 µM (inactive)	> 10 µM (inactive)	5.33 µM (inactive)	> 10 µM (inactive)	> 10 µM (inactive)	9.71 µM (inactive)		> 10 µM (inactive)	3.57 µM (inactive)
CC(C)=CCN=C(N)N	> 100 µM (inactive)	> 100 µM (inactive)	> 100 µM (inactive)	> 100 µM (inactive)	> 100 µM (inactive)	> 100 µM (inactive)	> 100 µM (inactive)		> 100 µM (inactive)	> 100 µM (inactive)	> 100 µM (inactive)	> 100 µM (inactive)	> 100 µM (inactive)		> 100 µM (inactive)	> 100 µM (inactive)	> 100 µM (inactive)	> 100 µM (inactive)	> 100 µM (inactive)	16.7 µM (inactive)
COc1ccc(OC)c([N+](=O)[O-])c1-c1nc2sc(C)c(C)n2c1/C=N/N=C(N)N	> 100 µM (inactive)	> 100 µM (inactive)	45.7 µM (inactive)	43.4 µM (inactive)	48.3 µM (inactive)	> 100 µM (inactive)	> 100 µM (inactive)		> 100 µM (inactive)	> 100 µM (inactive)	49.7 µM (inactive)	49 µM (inactive)	> 100 µM (inactive)	33.3 µM (inactive)	45.6 µM (inactive)	> 100 µM (inactive)	84.1 µM (inactive)	21.3 µM (inactive)	> 100 µM (inactive)	62.4 µM (inactive)
O=C(O)C1Cc2c([nH]c3ccccc23)C(CCCCO)N1 (stereo not given)	> 100 µM (inactive)	> 100 µM (inactive)	> 100 µM (inactive)	> 100 µM (inactive)	> 100 µM (inactive)	> 100 µM (inactive)	> 100 µM (inactive)		> 100 µM (inactive)	> 100 µM (inactive)	> 100 µM (inactive)	> 100 µM (inactive)	> 100 µM (inactive)	> 100 µM (inactive)	> 100 µM (inactive)	> 100 µM (inactive)	> 100 µM (inactive)	> 100 µM (inactive)	> 100 µM (inactive)	> 100 µM (inactive)
C[C@H]1CC[C@H]([C@@H](C)[C@H]2[C@@H](O)C[C@H]3[C@@H]4CC[C@H]5C[C@@H](O)CC[C@]5(C)[C@H]4CC[C@]23C)NC1	15.6 µM (inactive)	17 µM (inactive)	14.6 µM (inactive)	18.1 µM (inactive)	27.1 µM (inactive)	16.3 µM (inactive)	14.7 µM (inactive)		15 µM (inactive)	23.6 µM (inactive)	15.8 µM (inactive)	19.2 µM (inactive)	16.3 µM (inactive)		23.1 µM (inactive)	18.4 µM (inactive)	16.9 µM (inactive)	19.6 µM (inactive)	16.1 µM (inactive)	6.34 µM (inactive)
COC(=O)c1ccccc1C1CN=NC12Cc1ccc(C)c(C)c1C2=O (stereo not given)	29.6 µM (inactive)	57.5 µM (inactive)	74 µM (inactive)	27.2 µM (inactive)	> 100 µM (inactive)	> 100 µM (inactive)	21.9 µM (inactive)	61.2 µM (inactive)	> 100 µM (inactive)	> 100 µM (inactive)	> 100 µM (inactive)	14.6 µM (inactive)	> 100 µM (inactive)	28.9 µM (inactive)	> 100 µM (inactive)	25.8 µM (inactive)	46.5 µM (inactive)	> 100 µM (inactive)	79.6 µM (inactive)	
